The values that follow come from PMC6965176, “Targeting Forward and Reverse EphB4/EFNB2 Signaling by a Peptide with Dual Functions” (Scientific Reports, 2020).

The target in data set [1] is T1, EphB4 on the surface of A2780cp20 cells (Homo sapiens, UniProt P54760).
T1 construct: endogenous in cells; host or cells: A2780cp20 ovarian cancer cells
T1 sequence (P54760 16-987): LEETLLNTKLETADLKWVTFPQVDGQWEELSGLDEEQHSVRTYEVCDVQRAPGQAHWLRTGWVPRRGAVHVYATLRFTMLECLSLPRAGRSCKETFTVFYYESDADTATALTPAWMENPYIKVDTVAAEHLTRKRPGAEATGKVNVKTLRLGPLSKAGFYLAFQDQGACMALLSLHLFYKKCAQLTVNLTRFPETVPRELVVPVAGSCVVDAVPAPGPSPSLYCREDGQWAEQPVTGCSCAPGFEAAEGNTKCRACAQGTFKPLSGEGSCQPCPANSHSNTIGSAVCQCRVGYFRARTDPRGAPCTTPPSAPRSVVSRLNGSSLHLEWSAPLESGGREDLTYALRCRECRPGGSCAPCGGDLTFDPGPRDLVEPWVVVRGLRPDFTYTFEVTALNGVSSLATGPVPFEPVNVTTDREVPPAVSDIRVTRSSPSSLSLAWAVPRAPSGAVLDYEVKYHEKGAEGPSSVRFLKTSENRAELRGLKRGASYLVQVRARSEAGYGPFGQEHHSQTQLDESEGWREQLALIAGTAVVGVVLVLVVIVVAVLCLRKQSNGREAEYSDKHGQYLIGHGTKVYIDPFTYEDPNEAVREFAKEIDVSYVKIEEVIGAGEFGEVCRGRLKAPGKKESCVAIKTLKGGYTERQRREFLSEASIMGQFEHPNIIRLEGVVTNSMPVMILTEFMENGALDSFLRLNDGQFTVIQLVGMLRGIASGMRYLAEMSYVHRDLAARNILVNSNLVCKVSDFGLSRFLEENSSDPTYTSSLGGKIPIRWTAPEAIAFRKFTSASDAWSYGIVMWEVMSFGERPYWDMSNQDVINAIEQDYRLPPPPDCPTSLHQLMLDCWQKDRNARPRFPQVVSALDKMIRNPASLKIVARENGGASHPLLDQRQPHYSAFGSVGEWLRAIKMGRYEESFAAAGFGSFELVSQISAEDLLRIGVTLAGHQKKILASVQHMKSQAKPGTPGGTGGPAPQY
As to the kind of experiment: Cell-based binding assay: displacement of EFNB2-Fc from A2780cp20 cells (flow cytometry). As to conditions: EFNB2-Fc 20 nM, BIDEN-AP 0-100 µM, 25 °C, 1 h, PE-anti-Fc flow cytometry, duplicate (Fig. 1D,E). The procedure:
Figure 1 Novel EphB4 agonist BIDEN-AP has high receptor binding affinity. (A) Structure of BIDEN-AP. D-Tyr-P3 is highlighted in red. (B) Surface plasmon resonance (SPR) sensorgrams of BIDEN-AP. Vertical axes, in response units (RU), represent binding of the peptide to immobilized EphB4. (C) Competition of BIDEN-AP with EFNB2-Fc for EphB4 binding. BIDEN-AP at concentrations from 2 nM to 1000 nM was mixed with human EphB4 (30 nM) and injected onto sensor chips coated with EFNB2-Fc. (D) Competition of BIDEN-AP with EFNB2-Fc for EphB4 binding at the cellular level. A2780cp20 cells were co-incubated with EFNB2-Fc (20 nM) and BIDEN-AP (at concentrations from 0 to 100 µM) at 25 °C for 1 h. EFNB2-Fc bound to the cells was probed with phycoerythrin-labeled anti-Fc antibody and analyzed by flow cytometry. (E) Bound EFNB2-Fc as a function of BIDEN-AP concentration. […]
A2780cp20 ovarian cancer cells (1×10^6 cells/mL) were incubated with EFNB2-Fc (20 nM) and BIDEN-AP at concentrations ranging from 0 to 100 µM at 25 °C for 1 h. After washings, EFNB2-Fc bound to the cells were probed with phycoerythrin (PE)-labeled anti-Fc antibody and analyzed by flow cytometry. Binding of BIDEN-AP to A2780cp20 cells was determined by its capacity to displace EFNB2-Fc’s binding to the tumor cells, measured by decreased PE fluorescence signal. Cells were analyzed in a Cellquest fluorocytometer (BD Bioscience, San Jose, CA). […]
Background: Flow cytometry measures light scatter and fluorescence of single cells or particles in a stream.

For another data set, the system named is MDA-HGSC-1 PDX tumor. Description: Subcutaneous MDA-HGSC-1 patient-derived xenograft model. In kind it is in vivo, mice. As to conditions: 300 µg/injection i.p., 14 doses (Fig. S10B). An excerpt: Under Institutional Review Board (IRB protocol PA15-0441) and IACUC approval at MD Anderson Cancer Center, patients with HGSC who were being treated at MD Anderson gave consent for the use of their tumor tissue in this study. Four- to six-week-old female Balb C athymic nude mice (Harlan Laboratories) were implanted with one PDX 3×3×3 mm tumor cube (MDA-HGSOC-1 high-grade serous ovarian cancer; generation 9) in the dorsal flank to create subcutaneous HGSC-PDX model. Tumor size was monitored by caliber, and tumor volume was calculated using the formula V(cm^3) = (length x width^2)/2. Mice were randomly assigned to the PBS vehicle control or BIDEN-AP treatment group, 6 mice per group, once tumor size reached ~100 mm^3 (21 days after implantation). Treatments consisted of intraperitoneal injection of PBS or BIDEN-AP at 300 μg/injection (100 μL/injection) once every other day for a total of 14 doses. At the end of the study (day 49), all mice were euthanized, and tumors were collected, weighed, snap-frozen in optimal cutting temperature compound with liquid nitrogen, and cryosectioned into 5-μm sections for immunohistochemical staining of CD31 and Ki67 markers.
incubated overnight at 4°C.
Slides were subjected to recombinant terminal
The slides were then labeled by adding
Microvessel density was evaluated
magnification from three tumor samples.
For CD31 staining, slides were […]
On the technique in general: In xenograft studies the graft and the host belong to different species.

The subject of the next data set is RF24 cells. Description: Tubule formation of immortalized endothelial cells on Matrigel. In kind it is cell-based. As to conditions: BIDEN-AP 15 µM or EFNB2-Fc 2 nM, 24 h, number of nodes (Fig. 4A,B). The procedure: Figure 4 BIDEN-AP–based agents inhibit tube formation and sensitize resistant endothelial cells to anti-VEGF antibody. (A,B) Tube formation by RF24 cells treated with EFNB2-Fc (2 nM) or BIDEN-AP (15 µM) compared to untreated controls (CTL). Representative data from three independent experiments are presented. (A) Representative microphotographs of tubes formed by RF24 cells are shown (n = 3). Images were taken at × 100 magnification. (B) Quantification of the number of nodes per field in three technical replicates. […] (C) Representative flow cytometry plots from three independent experiments of RF24_Bev cells are shown here. SYTOX-negative staining represents the live cell population.
Matrigel (Becton Dickinson, Bedford, MA) was used to assess formation of capillary-like structures by RF24 cells on a basement membrane. Twelve-well Costar plates (Corning, Corning, NY) were coated with Matrigel (10 mg/mL) according to the manufacturer’s instructions. RF24 cells (1.0 × 10^4 cells/well) were seeded on Matrigel-coated plates and incubated at 37 °C for 60 min. […] The degree of tubule formation was determined by the number of nodes. […] The nodes for each image were counted manually. Five images (×100 magnification) per treatment were counted double blindly. Data are expressed as a percentage of the number of tubes in untreated control wells.

Non-standard residues stand in square brackets, D forms with d. Residues, ends and D or L forms follow the SMILES beside them.

By IC50 is commonly meant the point on the concentration scale where inhibition reaches its midpoint. In turn, `CC[C@H](C)[C@H](NC(=O)[C@@H]1CCCN1C(=O)CNC(=O)[C@H](CC(N)=O)NC(=O)[C@@H]1CCCN1C(=O)[C@H](CO)NC(=O)[C@H](Cc1ccccc1)NC(=O)[C@H](CC(C)C)NC(=O)[C@@H](Cc1ccc(O)cc1)NC(=O)[C@H](CC(N)=O)NC(=O)[C@@H](N)[C@@H](C)O)C(=O)N[C@@H](C)C(=O)N[C@@H](CCCNC(=N)N)C(=O)N[C@@H](C)C(=O)N[C@@H](Cc1c[nH]c2ccccc12)C(N)=O` [BIDEN-AP] (H-TN[dY]LFSPNGPIARAW-NH2) had an IC50 in data set [1] of around 1 µM. Also, in the data set with MDA-HGSC-1 PDX tumor, the “body weight change compared to control group” value is recorded as “did not cause body weight change”.

B1: EFNB2-Fc: ephrin B2 ligand fused to Fc, natural ligand of EphB4 (protein)
chain: IVLEPIYWNSSNSKFLPGQGLVLYPQIGDKLDIICPKVDSKTVGQYEYYKVYMVDKDQADRCTIKKENTPLLNCAKPDQDIKFTIKFQEFSPNLWGLEFQKNKDYYIISTSNGSLEGLDNQEGGVCQTRAMKILMKVGQDASSAGSTRNKDPTRRPELEAGTNGRSSTTSPFVKPNPGSSTDGNSAGHSGNNILGSEVALFA
modifications: left off: Fc, end not stated, kept
notes: ephrin B2 ligand fused to Fc, natural ligand of EphB4
With B1, the “formation of capillary-like tubes” value with RF24 cells was “significantly inhibited the formation of capillary-like tubes”.
